Measurements: ChEMBL document CHEMBL1201862, “PubChem BioAssay data set” (2004)
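Five compound concentrations were applied to cells in 96-well plates for 48 hours; endpoints were derived by simple linear interpolation of the resulting dose-response curve. At the GI50, growth is halved.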 Calls of active or inactive are those of the source. Rule as the data show it: active = GI50 up to about 1.1 µM and inactive = higher.

Key:
Assay in all cases: NCI-60 cell line screen, 48 h
HL-60 = test system: HL-60
HCT-15 = test system: HCT-15
SK-MEL-2 = test system: SK-MEL-2
SR = test system: SR
NCI-H226 = test system: NCI-H226
M14 = test system: M14
EKVX = test system: EKVX
MDA-MB-435 = test system: MDA-MB-435
CAKI-1 = test system: CAKI-1
SF-539 = test system: SF-539
SN12C = test system: SN12C
UO-31 = test system: UO-31
K562 = test system: K562
DU-145 = test system: DU-145
SK-OV-3 = test system: SK-OV-3
OVCAR-3 = test system: OVCAR-3
NCI/ADR-RES = test system: NCI/ADR-RES
MCF7 = test system: MCF7
KM12 = test system: KM12
OVCAR-4 = test system: OVCAR-4

Measured: GI50

C/C(=N\NC(=S)N1CCCCC1)c1nc2cccnc2[nH]1
inactive: HL-60 3.35 µM | SK-MEL-2 22 µM | SR 3.64 µM | NCI-H226 8.53 µM | M14 7.46 µM | EKVX 5.3 µM | MDA-MB-435 15.1 µM | CAKI-1 13.2 µM | SF-539 6.14 µM | SN12C 19.7 µM | UO-31 4.24 µM | K562 6.9 µM | DU-145 14.7 µM | SK-OV-3 41.6 µM | OVCAR-3 5.15 µM | NCI/ADR-RES 3.83 µM | MCF7 3.67 µM | KM12 9.02 µM | OVCAR-4 4.24 µM
5.81 µM: HCT-15

C=CCNC(=O)NC(=O)CSC1=NC(=O)C2(NN1)c1ccccc1-c1ccccc12
> 10 µM: HCT-15
inactive: HL-60 > 10 µM | SR > 10 µM | NCI-H226 > 10 µM | M14 > 10 µM | EKVX > 10 µM | MDA-MB-435 > 10 µM | CAKI-1 > 10 µM | SF-539 > 10 µM | SN12C > 10 µM | UO-31 9.62 µM | K562 > 10 µM | DU-145 > 10 µM | SK-OV-3 > 10 µM | NCI/ADR-RES > 10 µM | MCF7 > 10 µM | KM12 > 10 µM | OVCAR-4 > 10 µM

O=c1c2cc([N+](=O)[O-])cnc2sn1-c1ccc(Br)cc1
57.4 µM: HCT-15
inactive: HL-60 34.5 µM | SK-MEL-2 32.7 µM | SR 21.8 µM | NCI-H226 73.6 µM | M14 53 µM | EKVX 42.5 µM | MDA-MB-435 > 100 µM | SF-539 27.3 µM | SN12C 72.6 µM | UO-31 51.3 µM | DU-145 > 100 µM | SK-OV-3 14.8 µM | OVCAR-3 22.4 µM | NCI/ADR-RES 33.9 µM | MCF7 26 µM | KM12 40.8 µM | OVCAR-4 24.5 µM

COc1cc2c(NCCN(C)C)nc3c4cc5c(cc4ccc3c2cc1OC)OCO5
2.94 µM: HCT-15
inactive: HL-60 4.23 µM | SK-MEL-2 6.04 µM | NCI-H226 3.7 µM | M14 4.03 µM | EKVX 4.09 µM | MDA-MB-435 3.5 µM | CAKI-1 2.73 µM | SF-539 4.06 µM | SN12C 4.53 µM | UO-31 3.36 µM | K562 3.23 µM | DU-145 3.96 µM | SK-OV-3 4.78 µM | NCI/ADR-RES 4.16 µM | MCF7 1.84 µM | KM12 4.18 µM | OVCAR-4 3.96 µM
active: SR 0.115 µM

CC1(C=O)CCC23COC4(CCC5C6(C)CCC(OC7OCC(OC8OC(CO)C(O)C(OC9OC(CO)C(O)C(O)C9O)C8OC8OCC(O)C(O)C8O)C(O)C7OC7OC(CO)C(O)C(O)C7O)C(C)(C)C6CCC5(C)C4(C)CC2O)C3C1 (centres undefined)
active: HL-60 0.356 µM | SR 0.132 µM | CAKI-1 1.12 µM | NCI/ADR-RES 0.264 µM | MCF7 0.822 µM | KM12 0.0474 µM
inactive: SK-MEL-2 1.57 µM | NCI-H226 1.8 µM | M14 1.52 µM | EKVX 1.5 µM | MDA-MB-435 1.48 µM | SF-539 1.3 µM | UO-31 1.48 µM | K562 3.1 µM | DU-145 1.46 µM | SK-OV-3 1.28 µM | OVCAR-3 1.47 µM | OVCAR-4 1.16 µM
1.53 µM: HCT-15

CC(C)CC1c2[nH]c3ccccc3c2C[C@H]2C(=O)NC(Cc3c[nH]c4ccccc34)C(=O)N12 (some centres undefined)
14.6 µM: HCT-15
inactive: HL-60 11.8 µM | SK-MEL-2 16 µM | SR 14 µM | NCI-H226 26.9 µM | M14 14.1 µM | EKVX 16 µM | MDA-MB-435 16 µM | CAKI-1 23.7 µM | SN12C 15.9 µM | UO-31 14.3 µM | K562 11.5 µM | DU-145 20.3 µM | SK-OV-3 16.5 µM | OVCAR-3 7.74 µM | NCI/ADR-RES 18 µM | MCF7 14.8 µM | KM12 13.4 µM | OVCAR-4 15.8 µM

COC(=O)C1=C(C)NC(=O)N2[C@@H](CCOCc3ccccc3)CC[C@@H]12
> 50 µM: HCT-15
inactive: HL-60 > 50 µM | SK-MEL-2 > 50 µM | SR > 50 µM | NCI-H226 > 50 µM | M14 > 50 µM | EKVX > 50 µM | MDA-MB-435 > 50 µM | CAKI-1 > 50 µM | SF-539 > 50 µM | UO-31 > 50 µM | K562 > 50 µM | DU-145 > 50 µM | SK-OV-3 > 50 µM | OVCAR-3 > 50 µM | NCI/ADR-RES > 50 µM | MCF7 > 50 µM | KM12 > 50 µM | OVCAR-4 > 50 µM

BrC1(c2ccccc2)C[n+]2c(-c3ccccc3)cc(-c3ccccc3)cc2-c2ccccc21 (centres undefined)
inactive: CAKI-1 3.66 µM | SN12C 3.88 µM | UO-31 1.35 µM | NCI/ADR-RES 17.9 µM
active: HL-60 0.168 µM | SK-MEL-2 0.317 µM | SR 0.611 µM | NCI-H226 0.659 µM | M14 0.499 µM | EKVX 0.457 µM | MDA-MB-435 0.205 µM | SF-539 0.764 µM | K562 0.159 µM | DU-145 0.931 µM | OVCAR-3 0.0489 µM | MCF7 0.184 µM | KM12 0.299 µM | OVCAR-4 0.977 µM
2.9 µM: HCT-15

O=c1n(Cc2ccccc2)c(=O)n2c(=O)n(Cc3ccccc3)c(=O)n12
> 100 µM: HCT-15
inactive: HL-60 > 100 µM | SR > 100 µM | NCI-H226 > 100 µM | MDA-MB-435 > 100 µM | CAKI-1 > 100 µM | SF-539 39.8 µM | SN12C > 100 µM | UO-31 > 100 µM | K562 > 100 µM | DU-145 > 100 µM | SK-OV-3 > 100 µM | NCI/ADR-RES > 100 µM | MCF7 > 100 µM | KM12 > 100 µM | OVCAR-4 > 100 µM

CN(C)C1(C(=O)O)CC1
> 100 µM: HCT-15
inactive: HL-60 > 100 µM | SR > 100 µM | NCI-H226 > 100 µM | M14 > 100 µM | EKVX > 100 µM | MDA-MB-435 > 100 µM | SF-539 > 100 µM | SN12C > 100 µM | K562 > 100 µM | DU-145 > 100 µM | OVCAR-3 > 100 µM | NCI/ADR-RES > 100 µM | MCF7 > 100 µM | OVCAR-4 > 100 µM

CCOC1CN=C(Nc2cccc3ccccc23)S1 (centres undefined)
> 10 µM: HCT-15
inactive: HL-60 > 10 µM | SK-MEL-2 > 10 µM | SR > 10 µM | NCI-H226 > 10 µM | M14 > 10 µM | EKVX > 10 µM | MDA-MB-435 > 10 µM | CAKI-1 > 10 µM | SF-539 > 10 µM | SN12C > 10 µM | K562 > 10 µM | DU-145 > 10 µM | SK-OV-3 > 10 µM | OVCAR-3 > 10 µM | NCI/ADR-RES > 10 µM | MCF7 > 10 µM | KM12 > 10 µM | OVCAR-4 > 10 µM

O=C(CSc1nnc(-c2ccccn2)s1)N/N=C/c1ccc([N+](=O)[O-])cc1
active: UO-31 < 0.01 µM
45.6 µM: HCT-15
inactive: HL-60 > 100 µM | SK-MEL-2 77.1 µM | SR > 100 µM | NCI-H226 > 100 µM | M14 > 100 µM | MDA-MB-435 > 100 µM | CAKI-1 > 100 µM | SF-539 59.2 µM | SN12C 69.8 µM | K562 > 100 µM | DU-145 11.4 µM | SK-OV-3 35.2 µM | OVCAR-3 > 100 µM | NCI/ADR-RES > 100 µM | MCF7 > 100 µM | KM12 > 100 µM | OVCAR-4 > 100 µM

O=C1NC(N2CCCCC2)=N/C1=C\c1ccc(Cl)cc1
inactive: HL-60 > 100 µM | SK-MEL-2 > 100 µM | SR > 100 µM | NCI-H226 22.3 µM | M14 66.8 µM | EKVX 26.3 µM | MDA-MB-435 60.4 µM | CAKI-1 > 100 µM | SF-539 94 µM | SN12C 72.6 µM | UO-31 34.7 µM | DU-145 44.1 µM | SK-OV-3 > 100 µM | OVCAR-3 26.4 µM | NCI/ADR-RES 22 µM | MCF7 47.2 µM | KM12 25.1 µM | OVCAR-4 68.4 µM
43.1 µM: HCT-15

CC(=O)Nc1ccc(COC(O)CN2CCCCC2)cc1[N+](=O)[O-] (centres undefined)
> 100 µM: HCT-15
inactive: HL-60 > 100 µM | SK-MEL-2 > 100 µM | SR > 100 µM | NCI-H226 > 100 µM | M14 > 100 µM | MDA-MB-435 > 100 µM | CAKI-1 > 100 µM | SF-539 > 100 µM | SN12C > 100 µM | UO-31 > 100 µM | K562 > 100 µM | DU-145 > 100 µM | OVCAR-3 > 100 µM | NCI/ADR-RES > 100 µM | MCF7 > 100 µM | KM12 > 100 µM | OVCAR-4 > 100 µM

CC(C)(C)OC(=O)NC(CSCc1ccc(C(=O)c2ccccc2)cc1)C(=O)O (centres undefined)
inactive: HL-60 > 100 µM | SR 87.9 µM | NCI-H226 > 100 µM | EKVX > 100 µM | MDA-MB-435 > 100 µM | CAKI-1 > 100 µM | SF-539 > 100 µM | SN12C > 100 µM | UO-31 > 100 µM | K562 > 100 µM | DU-145 > 100 µM | OVCAR-3 > 100 µM | NCI/ADR-RES > 100 µM | MCF7 > 100 µM | KM12 > 100 µM | OVCAR-4 88.9 µM
> 100 µM: HCT-15
